According to patent publication US20230173089A1, “Q-ER PEPTIDE” (Biotempt B.V., priority 2019, published 2023):
Read-outs that look alike come from different tables or passages of the source.

Legend:
[1] = test system: non-obese diabetic (NOD) mouse; experiment: type 1 diabetes development in NOD mice; type: in vivo; details: 250 µg i.p. three times per week, female NOD mice from 14 weeks, max five weeks
Description: The non-obese diabetic (NOD) mouse spontaneously develops type 1 diabetes (T1D) and has served as a model for understanding the genetic and immunological basis, and treatment, of T1D. NOD mice are used in these studies. Most diabetic NOD mice suffer from insulin deficiency diabetes, with the underlying cause of the pancreatic beta-cell loss or destruction most likely a result of an inflammatory process in the micro-vasculature surrounding endocrine beta-cell tissues and genetically accelerated autoimmunity is suspected. Diabetes is assessed by measurement of the venous blood glucose level using an Abbott Medisense Precision glucometer. Mice are considered diabetic after two consecutive glucose measurements ≥11 mmol/l (200 mg/dl). Onset of diabetes is dated from the first consecutive reading of ≥11 mmol/l. In vivo treatment: groups of 14 weeks-old female NOD mice (n=12 per group) are treated with synthetic peptide SEQ ID NO:5 (AQGVAPG), SEQ ID NO:6 (LQGVAPG), SEQ ID NO:7 (AQGVLPG), SEQ ID NO:8 (LQGVLPG) or vehicle (PBS), respectively. Treatment is done by injecting 250 µg peptide diluted in PBS three times per week intraperitoneally (i.p.). Control mice are treated with PBS only. The treatment is discontinued when all PBS treated NOD mice in the experiment have developed diabetes. This is generally at the age of 19 weeks. The peptide and PBS treatments are done for a maximum of five weeks. In instances of hyperglycaemia of ≥20 mmol/l the mice are killed to avoid prolonged discomfort. The remainder mice are kept alive up to the age of 35 weeks without any further treatment.

[2] = test system: Wistar rats with hemorrhagic shock; experiment: hemorrhagic shock and resuscitation in rats (Example 15, SIRS); type: in vivo, rat; details: single injection 30 minutes after induction of hemorrhagic shock
Description: Severe hemorrhagic shock followed by resuscitation induces a massive inflammatory response, which may culminate into systemic inflammatory response syndrome, multiple organ dysfunction syndrome and finally death. Treatments that effectively prevent this inflammation are limited so far. […] Considering this powerful anti-inflammatory effect, it was investigated whether administration of 0.5 ml i.p. of synthetic heptapeptide SEQ ID NO:5 (AQGVAPG), SEQ ID NO:6 (LQGVAPG), SEQ ID NO:7 (AQGVLPG), SEQ ID NO:8 (LQGVLPG), dissolved in 0.9% NaCl at a concentration of 25 mg/ml, or vehicle (0.9% NaCl), respectively, during the SIRS-phase of hemorrhagic shock, is able to attenuate the inflammatory response associated with this condition.
Hemorrhagic shock is induced in groups of 6 rats for 60 minutes by blood withdrawal until a mean arterial pressure of 40 mmHg is reached. Thirty minutes after induction of hemorrhagic shock, rats received a single injection with one of synthetic heptapeptide SEQ ID NO:5 (AQGVAPG), SEQ ID NO:6 (LQGVAPG), SEQ ID NO:7 (AQGVLPG), SEQ ID NO:8 (LQGVLPG), or 0.9% NaCl solution, as control. Treatment with synthetic heptapeptide SEQ ID NO:5 (AQGVAPG), SEQ ID NO:6 (LQGVAPG), SEQ ID NO:7 (AQGVLPG), SEQ ID NO:8 (LQGVLPG) prevents systemic release of TNF-α and IL-6 and is associated with reduced TNF-α, IL-6 and E-selectin mRNA transcript levels in the liver, with reduced neutrophil infiltration into the liver and is associated with reduced liver damage.
Animals. Adult male specific pathogen-free Wistar rats weighing 350-400 g are used. Rats are housed under barrier conditions at 25° C. with a twelve-hour light/dark cycle, and are allowed food and water ad libitum. The experimental protocol adheres to the rules laid down in national law that serves the implementation of “Guidelines on the protection of experimental animals” by the Council of Europe (1986), Directive 86/609/EC. hCG-related synthetic oligopeptides. Rats are food deprived overnight before the start of the experiment, but are allowed water ad libitum. Rats are anesthetized using a mixture of N2 O/O2 /isoflurane (Pharmachemie B.V., Haarlem, The Netherlands). Body temperature is continuously maintained at 37.5° C. by placing the rats on a thermo controlled “half-pipe” (UNO, Rotterdam, The Netherlands). Endotracheal intubation is performed, and rats are ventilated at 60 breaths per minute with a mixture of N2 O/O2 /isoflurane. Polyethylene tubes (PE-50, Becton Dickinson; St. Michielsgestel, The Netherlands) are flushed with heparin and placed via the right carotid artery in the aorta and in the right internal jugular vein. A 5 cm midline laparotomy is performed and a supra pubic catheter is inserted to monitor urine production. Hemorrhagic shock is induced by blood withdrawal, reducing the circulating blood volume until a mean arterial pressure (MAP) of 40 mmHg is reached. This level of hypotension is maintained for 60 minutes. Thirty minutes after the induction of hemorrhagic shock, rats received a single intravenous (IV) bolus injection of heptapeptide solution or vehicle. Sixty minutes after induction of hemorrhagic shock, rats are resuscitated by four times their shed blood volume over a period of 30 minutes to normalize the MAP, and monitored for another 120 minutes after which they are sacrificed. The rats receive no heparin before or during the experiment. Sham animals are subjected to the same surgical procedure as the hemorrhagic shock animals, but without blood withdrawal and administration of heptapeptide.

[3] = test system: Streptozotocin-induced diabetic rats; experiment: renal function and urinary protein leakage in streptozotocin-induced diabetic rats; type: in vivo, rat; details: 140 minutes i.v. infusion, 5 nmol x min(-1) x kg(-1) body wt
Description: Acute effects of 140 minutes i.v. infusion of heptapeptide with SEQ ID NO:8 (LQGVLPG; 5 nmol x min(-1) x kg(-1) body wt) on renal function and urinary protein leakage are studied in anesthetized diabetic male rats two weeks after streptozotocin injection without insulin treatment. Streptozotocin-induced diabetic rats are studied with (N = 12) and without heptapeptide (N = 11) treatment. The two groups show a similarly elevated blood glucose concentration during the study. Age-matched normal rats serve as controls (N = 5). Glomerular filtration rate (GFR) is measured by inulin clearance in the basal state and during a 60-minute glycine infusion (0.22 mmol x min(-1) x kg(-1) body wt)-resembling a protein load challenge-to test the renal functional reserve in all three groups.
In the basal state, the non-heptapeptide-treated diabetic rats display increased GFR and increased total protein leakage when compared with normal rats. Whereas normal rats respond to glycine infusion with an increase in GFR, no increase occurs in diabetic rats not treated with heptapeptide. In diabetic rats given heptapeptide, this reduces the initial glomerular hyperfiltration prior to glycine infusion. […] Thus, short-term infusion of heptapeptide has beneficial effects on protein leakage and hyperfiltration and improves the renal functional reserve in rats.

[4] = test system: murine polymicrobial sepsis model; details: cited from earlier work
[5] = test system: high-dose lipopolysaccharide induced inflammation; details: previous study; cited from earlier work
[6] = test system: male C57B1/6N mice with renal ischemia/reperfusion injury; details: cited from earlier work
[7] = test system: allogenic kidney transplantation recipients; details: 50 mg/kg twice daily i.p.; cited from earlier work
[8] = test system: healthy volunteers given E. coli endotoxin; details: cited from earlier work
[9] = test system: colonic inflammation induced by dextran sulfate sodium (DSS); details: Gln supplementation; cited from earlier work
mTOR = details: cited from earlier work

In the case of “LQGVLPG (Immunomodulatory peptide) [SEQ ID NO:8]”, the “beta-cell failure with diabetes development (occurrence of diabetes after the age of 17 weeks)” value (“beta-cell failure” for short) [1] is reported as “significantly reduces”, the “TNF-α, IL-6 and E-selectin mRNA transcript levels in the liver” value [2] is reported as “reduced” and the liver damage [2] is reported as “reduced”. The “neutrophil infiltration into the liver” value [2] was “reduced”, the “systemic release of TNF-α and IL-6” value [2] was “prevents” and the “initial glomerular hyperfiltration (GFR) prior to glycine infusion” value [3] was “reduces”. For the same compound, the “renal functional reserve (GFR response to glycine infusion)” value [3] was “restores normal” and the “total protein leakage compared with rats not given heptapeptide” value [3] was “lower”.

For “LQGV (Immunomodulatory peptide) [SEQ ID NO:1, synthetic linear glutamine-containing tetrapeptide derived from beta-human chorionic gonadotropin]”, the “survival during the first 5 days after moderate cecal ligation and puncture” value ([4]; 5 mg/kg bodyweight, control 20%) is given as 50%, the “survival in severe cecal ligation and puncture model” value ([4]; 5 mg/kg combined with fluid resuscitation and antibiotics, fluid resuscitation and antibiotics alone 30%) is given as 70% and the “cytokine and E-selectin levels in peritoneal lavage fluid, lungs and plasma” value ([4]; moderate cecal ligation and puncture, 5 mg/kg) is given as “reduced”. The “pulmonary nuclear factor-κB activation and pulmonary damage” value ([4]; mouse, in vivo) was “reduced” and the “inflammatory response and mortality following high-dose lipopolysaccharide” value [5] was “inhibit”.

For “AQGV (Immunomodulatory peptide) [SEQ ID NO:2, synthetic linear glutamine-containing tetrapeptide derived from beta-human chorionic gonadotropin]”, the “survival after IRI” value ([6]; 20-50 mg/kg twice daily i.p. for four days, started 24 hours after IRI) is listed as “markedly improved”, the “CTGF up-regulation (marker of post-ischemic fibrosis) in renal tissue” value ([6]; four weeks after IRI) is listed as “significantly less” and the “tubular epithelial cell proliferation” value ([6]; mouse, in vivo) is listed as “significantly enhanced”. The acute tubular injury ([6]; two days after IRI) was “diminished”, the “renal function and allograft survival” value [7] was “improved” and the “endotoxin induced increase in plasma levels of IL-6, IL-8, IL-1RA, MCP-1, MIP-1α, MIP-1β and VCAM-1” value ([8]; 180 mg/kg (highest dose)) was “significant attenuation”. For the same compound, the “fever and flu-like symptoms” value ([8]; highest dose (180 mg/kg)) was “reduced”, the “endotoxin induced increase in plasma levels of IL-6, IL-8, IL-1RA, MCP-1, MIP-1α, MIP-1β and VCAM-1” value ([8]; lower doses (30, 90 mg/kg)) was “not with the lower doses tested” and the “inflammatory response and mortality following high-dose lipopolysaccharide” value [5] was “inhibit”.

In the case of “AQGVLPG (Immunomodulatory peptide) [SEQ ID NO:7]”, the “beta-cell failure” value [1] is reported as “significantly reduces”, the “TNF-α, IL-6 and E-selectin mRNA transcript levels in the liver” value [2] is reported as “reduced” and the liver damage [2] is reported as “reduced”. The “neutrophil infiltration into the liver” value [2] was “reduced” and the “systemic release of TNF-α and IL-6” value [2] was “prevents”.

In the case of “AQGVAPG (Immunomodulatory peptide) [SEQ ID NO:5]”, the “beta-cell failure” value [1] is reported as “significantly reduces”, the “TNF-α, IL-6 and E-selectin mRNA transcript levels in the liver” value [2] is reported as “reduced” and the liver damage [2] is reported as “reduced”. The “neutrophil infiltration into the liver” value [2] was “reduced” and the “systemic release of TNF-α and IL-6” value [2] was “prevents”.

In the case of `NC(=O)CC[C@H](N)C(=O)O` [L-Glutamine], the “degree of microscopic injury induced by dextran sulfate sodium (DSS)” value [9] is given as “attenuated”, the “activity as activators of mTOR or inhibitors of autophagy compared with other amino acids” value (mTOR; alone or in combination) is given as “more potent” and the “mTOR associated autophagic inhibitory effects on human cells” value (mTOR; human cells) is given as “most prominent”.
